We go through 35 molecules from ChEMBL document CHEMBL5500341, “Discovery of pyrido[3,2-d]pyrimidin-6(5H)-one derivatives as checkpoint kinase 1 (CHK1) inhibitors with potent antitumor efficacy” (Eur J Med Chem, 2024).

Calls of active or inactive are those of the source. The calls are words filed in the database; no cut-off is given here.

One series has as its system MV4-11. The experiment in a line: Antiproliferative activity against human MV4-11 cells assessed as inhibition of cell proliferation incubated for 72 hrs by CCK-8 assay. The series is classed as functional, cell-based. The note with it: MV4-11, 72 h. Background: Tetrazolium assays rely on reduction of a dye to a coloured formazan, in cell work by metabolically active cells.

Series [1] concerns HT-29. The experiment in a line: cells. The note with it: Homo sapiens, HT-29, 72 h.
Description: Antiproliferative activity against human HT-29 cells assessed as inhibition of cell proliferation incubated for 72 hrs by CCK-8 assay
Series [2] is described as follows: Metabolic stability in human liver microsome assessed as intrinsic clearance preincubated with compound for 10 mins followed by NADPH addition and measured up to 60 min by LC-MS/MS analysis. It is filed as ADME. The following applies: liver microsomes, time < 70 min, read-out: CLH.
A short description of series [3]: Metabolic stability in human microsome assessed as intrinsic clearance preincubated with compound for 10 mins followed by NADPH addition and measured up to 60 min by LC-MS/MS analysis. The following applies: microsomes, time < 70 min, read-out: CLH. It is filed as ADME.
Series [4] is described as follows: Metabolic stability in human liver microsome assessed as half life preincubated with compound for 10 mins followed by NADPH addition and measured up to 60 min by LC-MS/MS analysis. The note with it: liver microsomes, time < 70 min. The series is classed as ADME. (In general: Microsomes from liver hold many membrane-bound enzymes, among them those of drug oxidation.)

Series [5] addresses T1, Serine/threonine-protein kinase Chk1 (Homo sapiens) (UniProt O14757).
T1 sequence (whole entry): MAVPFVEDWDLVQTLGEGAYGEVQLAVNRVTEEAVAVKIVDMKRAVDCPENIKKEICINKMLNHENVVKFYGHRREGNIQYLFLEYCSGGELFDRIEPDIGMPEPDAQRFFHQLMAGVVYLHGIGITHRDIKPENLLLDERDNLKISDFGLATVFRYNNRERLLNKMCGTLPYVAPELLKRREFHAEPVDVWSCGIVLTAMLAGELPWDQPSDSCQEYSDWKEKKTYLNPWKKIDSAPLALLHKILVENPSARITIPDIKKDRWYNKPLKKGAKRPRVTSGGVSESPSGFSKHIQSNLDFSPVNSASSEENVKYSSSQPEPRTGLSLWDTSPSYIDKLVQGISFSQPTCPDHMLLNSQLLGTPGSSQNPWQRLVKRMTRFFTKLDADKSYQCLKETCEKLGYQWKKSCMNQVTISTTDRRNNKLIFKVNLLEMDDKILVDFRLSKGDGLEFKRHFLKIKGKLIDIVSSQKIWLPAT
Kind of series: Inhibition of CHK1 in human MV4-11 cells assessed as decrease in S296 phosphorylation at 11.11 nM measured for 24 hrs by Western blot analysis. It is filed as cell-based. (Immunoblotting shows a protein as a band on a membrane.)

Series [6] has as its system HT-29. Kind of series: Antitumor activity against human HT-29 cells xenografted in female BALB/c mouse assessed as tumor growth inhibition at 30 mg/kg, iv administered once daily for 21 days and measured after 3 days by vernier calipers analysis. The following applies: HT-29, 576 h, read-out: TGI.
Series [7] has as its system HT-29. The experiment in a line: Synergistic antiproliferative activity against human HT-29 cells assessed as inhibition of cell proliferation incubated for 72 hrs in presence of 50 nM 5-((4-((morpholin-2-ylmethyl)amino)-5-(trifluoromethyl)pyridin-2-yl)amino)pyrazine-2-carbonitrile by CCK-8 assay. It is filed as functional, cell-based. The note with it: HT-29, 72 h.
A further series deals with OVCAR-3. Kind of series: cells. The note with it: Homo sapiens, OVCAR-3, 72 h.
The test system of the next series is HCT-116. Kind of series: cells. The note with it: Homo sapiens, HCT-116, 72 h.
The next series deals with HL-60. The experiment in a line: cells. The note with it: Homo sapiens, HL-60, 72 h.
The next series has as its system A2780. The experiment in a line: cells. The following applies: Homo sapiens, A2780, 72 h.
Another series concerns MDA-MB-468. Kind of series: cells. The following applies: Homo sapiens, MDA-MB-468, 72 h.
In another series the test system is A549. Kind of series: cells. The note with it: Homo sapiens, A549, 72 h.
In series [8] the test system is HT-29. The experiment in a line: Synergistic antiproliferative activity against human HT-29 cells assessed as inhibition of cell proliferation incubated for 72 hrs in presence of 50 nM gemcitabine by CCK-8 assay. It is filed as functional, cell-based. The note with it: HT-29, 72 h.

Description for A2780: Antiproliferative activity against human A2780 cells assessed as inhibition of cell proliferation incubated for 72 hrs by CCK-8 assay
Description for A549: Antiproliferative activity against human A549 cells assessed as inhibition of cell proliferation incubated for 72 hrs by CCK-8 assay
Description for HCT-116: Antiproliferative activity against human HCT-116 cells assessed as inhibition of cell proliferation incubated for 72 hrs by CCK-8 assay
Description for HL-60: Antiproliferative activity against human HL-60 cells assessed as inhibition of cell proliferation incubated for 72 hrs by CCK-8 assay
Description for MDA-MB-468: Antiproliferative activity against human MDA-MB-468 cells assessed as inhibition of cell proliferation incubated for 72 hrs by CCK-8 assay
Description for OVCAR-3: Antiproliferative activity against human OVCAR-3 cells assessed as inhibition of cell proliferation incubated for 72 hrs by CCK-8 assay

By IC50 is commonly meant the concentration at which inhibition is half-maximal. On to `CCn1c(=O)ccc2nc(Nc3cnc(C#N)c(N[C@H]4CC[C@@H](N)CC4)c3)ncc21`, for which the IC50 in the series with MV4-11 was 2.23 µM.

As for `CC(C)(C)OC(=O)N1CCC(Nc2cc(Nc3ncc4c(n3)CCC(=O)N4)cnc2C#N)C1` (single isomer, unassigned), the IC50 with HT-29 [1] and in the series with MV4-11 was above 10 µM in each case.

Turning to `N#Cc1ncc(Nc2ncc3c(ccc(=O)n3CC(F)F)n2)cc1OC1CCNCC1`, in the series with MV4-11, the IC50 was above 10 µM.

As to `N#Cc1ncc(Nc2ncc3c(ccc(=O)n3CC(F)F)n2)cc1O[C@@H]1CCCNC1`, the IC50 in the series with MV4-11 was 4.88 µM.

As for `N#Cc1ncc(Nc2ncc3c(ccc(=O)n3CC(F)F)n2)cc1NC[C@H]1CCNC1`, the IC50 in the series on MV4-11 was above 10 µM.

For the molecule `N#Cc1ncc(Nc2ncc3c(ccc(=O)n3CC(F)F)n2)cc1N[C@H]1CC[C@H](N)CC1`, in the series with MV4-11, the IC50 stood at 2.67 µM.

`CC(C)n1c(=O)ccc2nc(Nc3cnc(C#N)c(N[C@H]4CC[C@@H](N)CC4)c3)ncc21`: the IC50 in the series on MV4-11 stood at 2.19 µM.

On to `N#Cc1ncc(Nc2ncc3[nH]c(=O)ccc3n2)cc1N[C@H]1CC[C@H](N)CC1`, for which the values for the IC50 in the series with HT-29 [1] and in the series with MV4-11 were above 10 µM and 0.0394 µM, respectively.

By half-life is commonly meant how long it takes for the measured level to halve. Regarding `O=C(O)Cc1ccccc1Nc1c(Cl)cccc1Cl` [DICLOFENAC], the CLint scaled in [2] was 242 mL/min/kg. Further, the microsomal CLint in series [3] was 269 µL/min/mg. The half-life in [4] was 5.14 min.

With `N#Cc1ncc(Nc2ncc3c(ccc(=O)n3CC(F)F)n2)cc1OCCCN`, in the series with MV4-11, the IC50 is above 10 µM.

Consider `N#Cc1ncc(Nc2ncc3c(ccc(=O)n3CC(F)(F)F)n2)cc1N[C@H]1CC[C@@H](N)CC1`, for which, in the series with MV4-11, the IC50 stood at 2.11 µM.

Regarding `N#Cc1ncc(Nc2ncc3c(ccc(=O)n3CC(F)F)n2)cc1NCCN`, the IC50 in the series on MV4-11 is above 10 µM.

On to `CN1CCC(Oc2cc(Nc3ncc4c(ccc(=O)n4CC(F)F)n3)cnc2C#N)CC1`, for which the IC50 in the series on MV4-11 was above 10 µM.

On to `Nc1ccn([C@@H]2O[C@H](CO)[C@@H](O)C2(F)F)c(=O)n1` [GEMCITABINE], for which the inhibition result in series [5] was “Active”. Further, the inhibition in vivo at 30 mg/kg in the series with HT-29 [6] was found to be 33.5%. The IC50 in the series on HT-29 [7] came out at 0.177 µM.

The molecule `N#Cc1ncc(Nc2ncc3[nH]c(=O)ccc3n2)cc1NCCN` had an IC50 in the series on HT-29 [1] above 10 µM.

As for `N#Cc1ncc(Nc2ncc3c(ccc(=O)n3CC(=O)O)n2)cc1N[C@H]1CC[C@@H](N)CC1`, in the series with MV4-11, the IC50 was above 10 µM.

Turning to `N#Cc1ncc(Nc2ncc3c(ccc(=O)n3CC(F)F)n2)cc1N[C@@H]1CCCNC1`, the IC50 in the series on MV4-11 worked out at 3.63 µM.

With `N#Cc1ncc(Nc2ncc3c(ccc(=O)n3CC(F)(F)F)n2)cc1N[C@H]1CCNC1`, in the series on MV4-11, the IC50 is above 10 µM.

For `N#Cc1ncc(Nc2ncc3c(ccc(=O)n3CC(F)F)n2)cc1O[C@H]1CCCNC1`, in the series on MV4-11, the IC50 was above 10 µM.

As to `CN(C)CCNc1cc(Nc2ncc3c(ccc(=O)n3CC(F)F)n2)cnc1C#N`, the half-inhibitory concentration (IC50) with MV4-11 was 3.81 µM.

Turning to `N#Cc1ncc(Nc2ncc3[nH]c(=O)ccc3n2)cc1NC[C@@H]1CCCNC1`, the IC50 in the series on HT-29 [1] was above 10 µM.

On to `N#Cc1ncc(Nc2ncc3[nH]c(=O)ccc3n2)cc1N[C@H]1CC[C@@H](N)CC1`, for which the values for the IC50 in the series on HT-29 [1] and in the series on MV4-11 were above 10 µM and 0.0565 µM, respectively.

In the case of `N#Cc1ncc(Nc2ncc3c(ccc(=O)n3CC(F)F)n2)cc1N[C@H]1CC[C@@H](N)CC1`, the IC50 with MV4-11 was found to be 2.47 µM.

Molecule `N#Cc1ncc(Nc2ncc3[nH]c(=O)ccc3n2)cc1N1CCOCC1` gave an IC50 in the series with HT-29 [1] above 10 µM.

Take `N#Cc1ncc(Nc2ncc3c(ccc(=O)n3CC(F)F)n2)cc1OCC1CCNCC1`: the IC50 with MV4-11 is above 10 µM.

As to `N#Cc1ncc(Nc2ncc3c(ccc(=O)n3CC(F)F)n2)cc1NCC1CCCCN1` (configuration not stated), the IC50 in the series on MV4-11 turned out to be 3.8 µM.

Consider `N#Cc1ncc(Nc2ncc3[nH]c(=O)ccc3n2)cc1N[C@H]1CCCNC1`, for which the concentration for half-maximal inhibition (IC50) was above 10 µM in the series on HT-29 [1] and 0.0195 µM with MV4-11.

As to `N#Cc1ncc(Nc2ncc3c(ccc(=O)n3CC(N)=O)n2)cc1N[C@H]1CC[C@@H](N)CC1`, the IC50 in the series on MV4-11 came out at 8.64 µM.

On to `N#Cc1ncc(Nc2ncc3c(ccc(=O)n3CC(F)F)n2)cc1NC1CCNCC1`, for which, in the series on MV4-11, the IC50 is above 10 µM.

Consider `Cn1c(=O)ccc2nc(Nc3cnc(C#N)c(N[C@H]4CC[C@@H](N)CC4)c3)ncc21`, for which, in the series on MV4-11, the IC50 came out at 0.883 µM.

In the case of `N#Cc1ncc(Nc2ncc3c(ccc(=O)n3CC(F)F)n2)cc1OC[C@H]1CCCNC1`, in the series on MV4-11, the concentration for half-maximal inhibition (IC50) is above 10 µM.

With `N#Cc1ncc(Nc2ncc3c(n2)CCC(=O)N3)cc1NC1CCNC1` (single isomer, unassigned), the IC50 with HT-29 [1] and in the series on MV4-11 was above 10 µM in each case.

Take `N#Cc1ncc(Nc2ncc3c(ccc(=O)n3CC(F)F)n2)cc1O[C@@H]1CCNC1`: the IC50 in the series with MV4-11 was above 10 µM.

Turning to `N#Cc1ncc(Nc2ncc3[nH]c(=O)ccc3n2)cc1NC1CCNC1` (single isomer, unassigned), the IC50 in the series on HT-29 [1] and with MV4-11 was above 10 µM throughout.

`N#Cc1cnc(Nc2cc(NC[C@H]3CNCCO3)c(C(F)(F)F)cn2)cn1` [SRA-737]: the IC50 in the series on HT-29 [1], in the series on OVCAR-3, in the series with HCT-116, in the series with HL-60, with A2780 and in the series on MDA-MB-468 was above 10 µM in each case. In addition, the half-inhibitory concentration (IC50) in the series with A549 is above 10 µM; in the series on HT-29 [8], 0.177 µM.
